From PubChem BioAssay AID2305 (GlaxoSmithKline (GSK), 2010)

These compounds were tested on P. falciparum 3D7 growth, pLDH absorbance (assay: P. falciparum 3D7 growth inhibition, dose response, strain 3D7 (AID 2305)).
With `CC(C)C1=C[C@H]2C[C@]3(C4OCCO4)[C@@H]4CC[C@@H](C)[C@H]4C[C@@]2(COCc2cccc(C#N)c2)[C@]13C(=O)OC(c1ccccc1)c1ccccc1` the IC50 was 1790 nM. Compound `CCC(C)NC(=O)Nc1ccc(-c2cccc(-c3nc4c(C)cccc4[nH]3)c2)cc1` (centres undefined) has an IC50 of 190 nM. `Cn1cncc1-c1ccc2c(-c3ccsc3)cnc(N)c2c1` showed an IC50 of 850 nM. `CCCC1N=C(N)N=C(N)N1c1ccc(CC)cc1` (centres undefined) gave an IC50 of 70 nM. `CS(=O)(=O)CCCNCc1ccc(-c2cc3c(Nc4ccc(OCc5ccccc5)cc4)ncnc3cn2)o1` showed an IC50 of 650 nM. `c1cc(CNC2CCCC2)cc(-c2ccc(CNc3ccc4ncccc4c3)cc2)c1` gave an IC50 of 770 nM. Compound `Cc1sc(NC(=O)c2ccc([N+](=O)[O-])cc2Cl)c(C(N)=O)c1C` has an IC50 of 930 nM. Work on `OC(CNC1CCCCCCC1)c1ccc(Cl)c(Cl)c1` (centres undefined) yielded an IC50 of 210 nM. Work on `COc1ccc2nccc([C@@H](O)CN3CCC(NC(=O)c4cc5ccccc5[nH]4)CC3)c2c1` yielded an IC50 of 970 nM. `CN(C(=O)/C=C/c1cc(C(F)(F)F)ccc1F)C1CCN(CCCCCNC(=O)/C=C/c2ccc(Cl)c(Cl)c2)C1` (centres undefined) was tested, and the IC50 was 1090 nM. `O=C(NC1CCN(Cc2cccc(C(F)(F)F)c2)CC1)c1ccc(-c2cccc(C(F)(F)F)c2)s1` was tested, and the IC50 was 1010 nM. `CCOC(=O)c1ccc(OCCOc2ccccc2)cc1` gave an IC50 of 370 nM. Compound `Cc1nn(CC(C)C)c2sc(C(=O)Nc3nc(-c4ccccn4)cs3)cc12` has an IC50 of 960 nM. For `CCCCCC(C)c1cc(O)c2c(c1)OC(C)(C)C=C2C1=CCN(Cc2ccccc2)CC1` (centres undefined), the IC50 was 780 nM. For `O=C(Nc1cccc(CN2CCN(Cc3cccc(O)c3)CC2)c1)c1ccc(Cl)c(Cl)c1`, the IC50 was 410 nM. In the case of `COc1cccc(C2CCN(CCN3CCC(NC(=O)c4ccc(-c5ccc(C(F)(F)F)cc5)cc4)CC3)CC2)c1`, the IC50 is reported as 200 nM. Compound `O=C(N[C@@H]1C[C@H]1c1ccccc1)N(CCCn1ccnc1)Cc1csc(-c2ccc(CNCc3ccccc3)cc2)n1` has an IC50 of 850 nM. Compound `O=S1(=O)NCc2ccc(Nc3nccc(Nc4ccc5c(cnn5Cc5ccccc5)c4)n3)cc21` has an IC50 of 750 nM. For `CCOc1cc(C(=O)NC2CCN(Cc3ccccc3)CC2)ccc1-c1nc2ccc(Cl)cc2[nH]1`, the IC50 was 430 nM. For `Cc1ccc(C2(CN3CCC(NC(=O)c4ccn[nH]4)CC3)CCCCC2)cc1`, the IC50 was 220 nM. With `CCCCCCOc1ccc(N2C(N)=NC(N)=NC2(C)C)cc1` the IC50 was 340 nM. With `COc1cccc(-c2cccc(NC(=O)C3CCN(Cc4ccc(O)cc4)CC3)c2)c1` the IC50 was 1030 nM. Compound `CN1CCc2cc(CN3C[C@]4(C)C[C@H]3CC(C)(C)C4)c(O)cc2C(c2ccccc2)C1` (some centres undefined) has an IC50 of 720 nM. With `O=C(NCC1CCC(C(=O)NC2CCCc3ccccc32)CC1)c1ccc(O)c(-c2cccc([N+](=O)[O-])c2)c1` (centres undefined) the IC50 was 940 nM. With `CS(=O)(=O)c1ccc(CCNCc2ccc(-c3ccc(CNC4Cc5ccccc5C4)cc3)nc2)cc1` the IC50 was 760 nM. In the case of `COc1cc(-c2ccc(-c3cnc(N)nc3OC)[nH]2)cc(OC)c1OC`, the IC50 is reported as 730 nM. `O=C(Nc1ccc(N2CCCCC2)c(Cl)c1)c1ncn[nH]1` showed an IC50 of 450 nM. `COc1cc(C(=O)Nc2cccc(-c3nc4ccccc4[nH]3)c2)ccc1OC(C)=O` showed an IC50 of 760 nM. `CCOC(=O)C1CCN(CCOc2cc(NC(=O)/C=C/c3ccccc3Cl)ccc2Br)CC1` gave an IC50 of 990 nM. `O=C(Nc1ccc2c(ccn2C2CCCN(Cc3cc(F)cc(F)c3F)CC2)c1)c1ccco1` (centres undefined) was tested, and the IC50 was 650 nM. In the case of `Cn1nccc1C(=O)NCCNCc1cccc(-c2cccc(-c3nc4ccc(F)cc4[nH]3)c2)c1`, the IC50 is reported as 260 nM. Work on `O=C(/C=C/c1ccc(F)cc1)NC1CCC(CCN2CCc3ccc(-n4cccn4)cc3CC2)CC1` (centres undefined) yielded an IC50 of 1440 nM. `CN1CCN(c2ccc(CNc3ccc4ncc(-c5cccc(OC(F)(F)F)c5)n4n3)cc2)CC1` showed an IC50 of 860 nM. In the case of `Cc1ccc(C(=O)Nc2cc(C(F)(F)F)cc(C(F)(F)F)c2)cc1[N+](=O)[O-]`, the IC50 is reported as 930 nM. Compound `CC(C)NCc1ccc(-c2ccc(NC(=O)c3ccc(Cl)cc3)cc2)cc1` has an IC50 of 910 nM. `Cc1cccc(Nc2nc(N[C@@H]3CCCNC3)nc3cc[nH]c(=O)c23)c1` showed an IC50 of 680 nM. `O=C(Nc1ccccc1)N(Cc1ccc(-c2cccc(CNC3CCCC3)c2)cc1)C1CCN(Cc2ccccc2)CC1` gave an IC50 of 430 nM. In the case of `CN1CCN(CCCN(Cc2ccc(-c3cccc(CNC4CCCC4)c3)cc2)C(=O)Nc2ccccc2)CC1`, the IC50 is reported as 1120 nM. In the case of `CCn1cnc2c(N3CCCC3=O)cc(C(=O)N[C@@H](Cc3ccccc3)[C@H](O)CNC3CCCCC3)cc21`, the IC50 is reported as 570 nM. With `CS(=O)(=O)c1ccc2nc(-c3cc(-c4ccc(OCCN5CCOCC5)cc4)cnc3N)[nH]c2c1` the IC50 was 1060 nM. Compound `CC12CCC(=O)N1C(C(=O)Nc1cccc(C(=O)Nc3cccc(C(F)(F)F)c3)c1)CS2` (centres undefined) has an IC50 of 360 nM. `O=C(/C=C/c1ccccc1)N1CCOC(CCN2CCC(c3ccccc3)CC2)(c2ccc(Cl)c(Cl)c2)C1` (centres undefined) gave an IC50 of 520 nM. Work on `Cn1cccc1CCNCc1ccc(-c2cccc(-c3nc4ccccc4[nH]3)c2)cc1` yielded an IC50 of 1210 nM. `Cc1cc(OCc2ccncc2)cc2c1C(=O)CC(C)(C)O2` gave an IC50 of 180 nM. With `CC(=O)COc1c(C2CCN(CCCCNC(=O)c3ccc(-c4ccc(C(F)(F)F)cc4)cc3)CC2)ccc2c1CCCC2` the IC50 was 780 nM. `Cc1ccc(NS(=O)(=O)c2ccc(-c3ccccc3)cc2)c(Cn2cnc(N3CCCNCC3)cc2=O)c1` was tested, and the IC50 was 860 nM. `CCN(CC)CCCOC(=O)c1ccc2c(c1)-c1ccc(C(=O)OCCCN(CC)CC)c3cccc-2c13` gave an IC50 of 930 nM. `O=C(/C=C/c1ccc(I)cc1)NCCCCCN1CCC(c2c[nH]c3ccc(O)cc23)CC1` was tested, and the IC50 was 770 nM. Compound `Cc1nn(-c2ccccc2)nc1C(=O)N(Cc1ccc(-c2ccc(CNCCc3ccc(S(C)(=O)=O)cc3)cn2)cc1)C(C)CN(C)C` (centres undefined) has an IC50 of 680 nM.
